Counter-ions that a name gives are not always drawn. Like-named read-outs stand apart in the source and are kept apart here.
Target: human CXCR3-A receptor (Homo sapiens (Human), UniProt P49682)
Assay: 125I-CXCL10 competition radioligand binding assay;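 further: One-hour incubation of membranes with tracer, bound radioligand separated by glass fibre filtration, IC50 derived from four-parameter nonlinear fit of competition curves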
[1] = displacement of 125I-CXCL10 from membranes of CHO cells expressing human recombinant CXCR3-A

Sequence of human CXCR3-A receptor (P49682 whole entry): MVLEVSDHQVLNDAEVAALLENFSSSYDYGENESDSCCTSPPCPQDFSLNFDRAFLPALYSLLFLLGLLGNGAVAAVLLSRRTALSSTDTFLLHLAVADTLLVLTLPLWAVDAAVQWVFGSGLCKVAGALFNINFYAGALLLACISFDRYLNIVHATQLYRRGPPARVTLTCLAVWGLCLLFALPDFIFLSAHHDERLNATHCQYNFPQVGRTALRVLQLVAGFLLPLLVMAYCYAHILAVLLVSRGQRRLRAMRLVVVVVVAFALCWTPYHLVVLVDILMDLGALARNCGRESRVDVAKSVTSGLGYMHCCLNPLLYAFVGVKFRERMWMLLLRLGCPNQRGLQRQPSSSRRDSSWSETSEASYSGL

Row | SMILES | IC50 [1] | IC50
1 | COc1cc(CN(CC2CCCC2)C(CC(=O)O)c2ccc(Cl)cc2Cl)ccc1OCCN1C(=O)CCC1=O (stereo not drawn) [Example 3, 3-(Cyclopentylmethyl-{4-[2-(2,5-dioxo-pyrrolidin-1-yl)-ethoxy]-3-methoxy-benzyl}-amino)-3-(2,4-dichloro-phenyl)-propionic acid] | 120 nM | –
2 | CC(C)CN(Cc1ccc(OCCN2C(=O)CCC2=O)c(F)c1)[C@@H](CC(=O)O)c1ccc(Cl)c(F)c1 [Example 21, (S)-3-(4-Chloro-3-fluoro-phenyl)-3-({4-[2-(2,5-dioxo-pyrrolidin-1-yl)-ethoxy]-3-fluoro-benzyl}-isobutyl-amino)-propionic acid; hydrochloride] | 66 nM | –
3 | CC(C)CN(Cc1ccc(OCCN2C(=O)CCC2=O)c(F)c1)[C@H](CC(=O)O)c1ccc(Cl)c(F)c1 [Example 22, (R)-3-(4-Chloro-3-fluoro-phenyl)-3-({4-[2-(2,5-dioxo-pyrrolidin-1-yl)-ethoxy]-3-fluoro-benzyl}-isobutyl-amino)-propionic acid; hydrochloride] | 531 nM | –
4 | Cc1cc(CN(CC2CC2)[C@@H](CC(=O)O)c2ccc(Cl)c(Cl)c2)ccc1OCCN1C(=O)CCC1=O [Example 26, (S)-3-(Cyclopropylmethyl-{4-[2-(2,5-dioxo-pyrrolidin-1-yl)-ethoxy]-3-methyl-benzyl}-amino)-3-(3,4-dichloro-phenyl)-propionic acid] | 39 nM | –
5 | Cc1cc(CN(CC2CC2)[C@H](CC(=O)O)c2ccc(Cl)c(Cl)c2)ccc1OCCN1C(=O)CCC1=O [Example 27, (R)-3-(Cyclopropylmethyl-{4-[2-(2,5-dioxo-pyrrolidin-1-yl)-ethoxy]-3-methyl-benzyl}-amino)-3-(3,4-dichloro-phenyl)-propionic acid] | 86 nM | –
6 | Cc1cc(CN(CC2CCCCC2)[C@@H](CC(=O)O)c2ccc(Cl)cc2)ccc1OCCN1C(=O)CN(C)C1=O [Example 30, (S)-3-(4-Chloro-phenyl)-3-(cyclohexylmethyl-{3-methyl-4-[2-(3-methyl-2,5-dioxo-imidazolidin-1-yl)-ethoxy]-benzyl}-amino)-propionic acid] | 55 nM | –
7 | Cc1cc(CN(CC2CCCCC2)[C@H](CC(=O)O)c2ccc(Cl)cc2)ccc1OCCN1C(=O)CN(C)C1=O [Example 31, (R)-3-(4-Chloro-phenyl)-3-(cyclohexylmethyl-{3-methyl-4-[2-(3-methyl-2,5-dioxo-imidazolidin-1-yl)-ethoxy]-benzyl}-amino)-propionic acid] | 416 nM | –
8 | Cc1cc(CN(CC2CCCC2)[C@@H](CC(=O)O)c2ccc(Cl)c(F)c2)ccc1OCCN1C(=O)CN(C)C1=O [Example 32, (S)-3-(4-Chloro-3-fluoro-phenyl)-3-(cyclopentylmethyl-{3-methyl-4-[2-(3-methyl-2,5-dioxo-imidazolidin-1-yl)-ethoxy]-benzyl}-amino)-propionic acid] | 69 nM | –
9 | Cc1cc(CN(CC2CCCC2)[C@H](CC(=O)O)c2ccc(Cl)c(F)c2)ccc1OCCN1C(=O)CN(C)C1=O [Example 33, (R)-3-(4-Chloro-3-fluoro-phenyl)-3-(cyclopentylmethyl-{3-methyl-4-[2-(3-methyl-2,5-dioxo-imidazolidin-1-yl)-ethoxy]-benzyl}-amino)-propionic acid] | 86 nM | –
10 | Cc1cc(CN(CC2CCCCC2)[C@@H](CC(=O)O)c2ccc(Cl)c(F)c2)ccc1OCCN1C(=O)CN(C)C1=O [Example 34, (S)-3-(4-Chloro-3-fluoro-phenyl)-3-(cyclohexylmethyl-{3-methyl-4-[2-(3-methyl-2,5-dioxo-imidazolidin-1-yl)-ethoxy]-benzyl}-amino)-propionic acid] | 83 nM | –
11 | Cc1cc(CN(CC2CCCCC2)[C@H](CC(=O)O)c2ccc(Cl)c(F)c2)ccc1OCCN1C(=O)CN(C)C1=O [Example 35, (R)-3-(4-Chloro-3-fluoro-phenyl)-3-(cyclohexylmethyl-{3-methyl-4-[2-(3-methyl-2,5-dioxo-imidazolidin-1-yl)-ethoxy]-benzyl}-amino)-propionic acid] | 75 nM | –
12 | COc1cc(CN(CC2CC2)C(CC(=O)O)c2ccc(Cl)cc2)ccc1OCCN1C(=O)CCC1=O (stereo not drawn) [Example 36, 3-(4-Chloro-phenyl)-3-(cyclopropylmethyl-{4-[2-(2,5-dioxo-pyrrolidin-1-yl)-ethoxy]-3-methoxy-benzyl}-amino)-propionic acid] | 20 nM | –
13 | CCCN(Cc1ccc(OCCN2C(=O)CCC2=O)c(OC)c1)C(CC(=O)O)c1ccc(Cl)cc1 (stereo not drawn) [Example 37, 3-(4-Chloro-phenyl)-3-({4-[2-(2,5-dioxo-pyrrolidin-1-yl)-ethoxy]-3-methoxy-benzyl}-propyl-amino)-propionic acid] | 20 nM | –
14 | CCCCN(Cc1ccc(OCCN2C(=O)CCC2=O)c(OC)c1)C(CC(=O)O)c1ccc(Cl)cc1 (stereo not drawn) [Example 38, 3-(Butyl-{4-[2-(2,5-dioxo-pyrrolidin-1-yl)-ethoxy]-3-methoxy-benzyl}-amino)-3-(4-chloro-phenyl)-propionic acid] | – | 45 nM
15 | COc1cc(CN(CC2CCCC2)C(CC(=O)O)c2ccc(Cl)cc2)ccc1OCCN1C(=O)CCC1=O (stereo not drawn) [Example 39, 3-(4-Chloro-phenyl)-3-(cyclopentylmethyl-{4-[2-(2,5-dioxo-pyrrolidin-1-yl)-ethoxy]-3-methoxy-benzyl}-amino)-propionic acid] | 71 nM | –
16 | COc1cc(CN(CC2CCCCC2)C(CC(=O)O)c2ccc(Cl)cc2)ccc1OCCN1C(=O)CCC1=O (stereo not drawn) [Example 40, 3-(4-Chloro-phenyl)-3-(cyclohexylmethyl-{4-[2-(2,5-dioxo-pyrrolidin-1-yl)-ethoxy]-3-methoxy-benzyl}-amino)-propionic acid] | 40 nM | –
17 | CCCN(Cc1ccc(OCCN2C(=O)CCC2=O)c(OC)c1)C(CC(=O)O)c1ccc(Cl)c(F)c1 (stereo not drawn) [Example 41, 3-(4-Chloro-3-fluoro-phenyl)-3-({4-[2-(2,5-dioxo-pyrrolidin-1-yl)-ethoxy]-3-methoxy-benzyl}-propyl-amino)-propionic acid] | 107 nM | –
18 | CCCCN(Cc1ccc(OCCN2C(=O)CCC2=O)c(OC)c1)C(CC(=O)O)c1ccc(Cl)c(F)c1 (stereo not drawn) [Example 43, 3-(Butyl-{4-[2-(2,5-dioxo-pyrrolidin-1-yl)-ethoxy]-3-methoxy-benzyl}-amino)-3-(4-chloro-3-fluoro-phenyl)-propionic acid] | 23 nM | –
19 | COc1cc(CN(CC2CCCCC2)C(CC(=O)O)c2ccc(Cl)c(F)c2)ccc1OCCN1C(=O)CCC1=O (stereo not drawn) [Example 44, 3-(4-Chloro-3-fluoro-phenyl)-3-(cyclohexylmethyl-{4-[2-(2,5-dioxo-pyrrolidin-1-yl)-ethoxy]-3-methoxy-benzyl}-amino)-propionic acid] | 43 nM | –
20 | COc1cc(CN(CC2CC2)C(CC(=O)O)c2ccc(Cl)c(Cl)c2)ccc1OCCN1C(=O)CCC1=O (stereo not drawn) [Example 45, 3-(Cyclopropylmethyl-{4-[2-(2,5-dioxo-pyrrolidin-1-yl)-ethoxy]-3-methoxy-benzyl}-amino)-3-(3,4-dichloro-phenyl)-propionic acid] | 66 nM | –
21 | CCCN(Cc1ccc(OCCN2C(=O)CCC2=O)c(OC)c1)C(CC(=O)O)c1ccc(Cl)c(Cl)c1 (stereo not drawn) [Example 46, 3-(3,4-Dichloro-phenyl)-3-({4-[2-(2,5-dioxo-pyrrolidin-1-yl)-ethoxy]-3-methoxy-benzyl}-propyl-amino)-propionic acid] | 118 nM | –
22 | CCCCN(Cc1ccc(OCCN2C(=O)CCC2=O)c(OC)c1)C(CC(=O)O)c1ccc(Cl)c(Cl)c1 (stereo not drawn) [Example 48, 3-(Butyl-{4-[2-(2,5-dioxo-pyrrolidin-1-yl)-ethoxy]-3-methoxy-benzyl}-amino)-3-(3,4-dichloro-phenyl)-propionic acid] | 61 nM | –
23 | COc1cc(CN(CC2CCCC2)C(CC(=O)O)c2ccc(Cl)c(Cl)c2)ccc1OCCN1C(=O)CCC1=O (stereo not drawn) [Example 49, 3-(Cyclopentylmethyl-{4-[2-(2,5-dioxo-pyrrolidin-1-yl)-ethoxy]-3-methoxy-benzyl}-amino)-3-(3,4-dichloro-phenyl)-propionic acid] | 61 nM | –
24 | COc1cc(CN(CC2CCCCC2)C(CC(=O)O)c2ccc(Cl)c(Cl)c2)ccc1OCCN1C(=O)CCC1=O (stereo not drawn) [Example 50, 3-(Cyclohexylmethyl-{4-[2-(2,5-dioxo-pyrrolidin-1-yl)-ethoxy]-3-methoxy-benzyl}-amino)-3-(3,4-dichloro-phenyl)-propionic acid] | 98 nM | –
25 | O=C(O)CC(c1ccc(Cl)cc1)N(Cc1ccc(OCCN2C(=O)CCC2=O)c(F)c1)CC1CC1 (stereo not drawn) [Example 51, 3-(4-Chloro-phenyl)-3-(cyclopropylmethyl-{4-[2-(2,5-dioxo-pyrrolidin-1-yl)-ethoxy]-3-fluoro-benzyl}-amino)-propionic acid] | 133 nM | –
26 | CCCN(Cc1ccc(OCCN2C(=O)CCC2=O)c(F)c1)[C@H](CC(=O)O)c1ccc(Cl)cc1 [Example 52, (R)-3-(4-Chloro-phenyl)-3-({4-[2-(2,5-dioxo-pyrrolidin-1-yl)-ethoxy]-3-fluoro-benzyl}-propyl-amino)-propionic acid] | 990 nM | –
27 | CC(C)CN(Cc1ccc(OCCN2C(=O)CCC2=O)c(F)c1)C(CC(=O)O)c1ccc(Cl)cc1 (stereo not drawn) [Example 53, 3-(4-Chloro-phenyl)-3-({4-[2-(2,5-dioxo-pyrrolidin-1-yl)-ethoxy]-3-fluoro-benzyl}-isobutyl-amino)-propionic acid] | 125 nM | –
28 | CCCCN(Cc1ccc(OCCN2C(=O)CCC2=O)c(F)c1)C(CC(=O)O)c1ccc(Cl)cc1 (stereo not drawn) [Example 54, 3-(Butyl-{4-[2-(2,5-dioxo-pyrrolidin-1-yl)-ethoxy]-3-fluoro-benzyl}-amino)-3-(4-chloro-phenyl)-propionic acid] | 306 nM | –
29 | O=C(O)C[C@H](c1ccc(Cl)cc1)N(Cc1ccc(OCCN2C(=O)CCC2=O)c(F)c1)CC1CCC1 [Example 55, (R)-3-(4-Chloro-phenyl)-3-(cyclobutylmethyl-{4-[2-(2,5-dioxo-pyrrolidin-1-yl)-ethoxy]-3-fluoro-benzyl}-amino)-propionic acid] | 294 nM | –
30 | O=C(O)CC(c1ccc(Cl)cc1)N(Cc1ccc(OCCN2C(=O)CCC2=O)c(F)c1)CC1CCCC1 (stereo not drawn) [Example 56, 3-(4-Chloro-phenyl)-3-(cyclopentylmethyl-{4-[2-(2,5-dioxo-pyrrolidin-1-yl)-ethoxy]-3-fluoro-benzyl}-amino)-propionic acid] | 52 nM | –
